2 compounds from patent US11091497B2, “Pyrano[3,4-b]pyrazine kappa opioid receptor ligands for treating addiction, pruritus, pain, and inflammation” (The Rockefeller University, priority 2017, dated 2021) can be followed below.

In this experiment the target is T1, human kappa opioid receptors (Homo sapiens, UniProt P41145).
T1 construct: expressed in transfected cells; host or cells: U2OS
As to the kind of experiment: [35S]GTPγS stimulation, membranes from U2OS cells. Type of experiment: biochemical. Conditions: for Emax: read-out: GTPγS stimulation % efficacy.

T1 sequence (P41145 whole entry): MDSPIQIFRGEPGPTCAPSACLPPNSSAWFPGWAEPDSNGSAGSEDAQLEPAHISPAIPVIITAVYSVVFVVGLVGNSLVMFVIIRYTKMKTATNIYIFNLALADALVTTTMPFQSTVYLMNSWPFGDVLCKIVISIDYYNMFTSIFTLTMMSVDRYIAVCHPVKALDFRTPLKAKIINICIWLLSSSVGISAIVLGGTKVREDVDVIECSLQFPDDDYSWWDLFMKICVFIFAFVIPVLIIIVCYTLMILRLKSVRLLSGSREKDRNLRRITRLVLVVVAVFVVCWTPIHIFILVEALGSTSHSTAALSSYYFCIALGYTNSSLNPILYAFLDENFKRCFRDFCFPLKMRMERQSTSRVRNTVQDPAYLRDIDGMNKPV

With `O=C(Cc1ccc(Cl)c(Cl)c1)N1CCN[C@@H]2COC[C@H](N3CCCC3)[C@H]21` (racemic) [Example 5A22, 1-[8-pyrrolidin-1-yl-2,3,4,4a,5,7,8,8a-octahydropyrano(3,4-b)pyrazin-1-yl]-2-(3,4-dichlorophenyl)ethanone], the concentration giving a half-maximal response (EC50) stood at 63 nM and the Emax was 96%.

`CN1CCN(C(=O)Cc2ccc(Cl)c(Cl)c2)[C@H]2[C@H]1COC[C@@H]2N1CCCC1` (racemic) [Example 5A23, 1-[4-methyl-8-pyrrolidin-1-yl-3,4a,5,7,8,8a-hexahydro-2H- -pyrano(3,4-b)pyrazin-1-yl]-2-(3,4-dichlorophenyl)ethanone]: the EC50 is 46 nM and the Emax came out at 76%.
